Experimental data from patent US20250326771A1, “PIPERAZINE DERIVATIVES USEFUL IN HIV THERAPY” (VIIV HEALTHCARE COMPANY, priority 2022, published 2025).
Like-named read-outs stand apart in the source and are kept apart here.

What was measured:
[1] = target: XIAP-BIR2 (Homo sapiens (Human), UniProt P98170); assay: BIR binding assay (FRET competition), XIAP BIR2; conditions: read-out: XIAP BIR2 (pIC50) (converted)
Outline: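 Compounds in a 15-point, 3-fold series competed with an AlexaFluor647 SMAC peptide (AVPIAQKSE, 200 nM) for 200 nM His-tagged XIAP-BIR2 over 60 min in pH 7.4 HEPES/CHAPS/DTT buffer. Eu-W1024 (2 nM) was then added for 30 min. IC50 and pIC50 were derived from the 615 nm/665 nm emission ratio by variable-slope fit.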

[2] = target: cIAP1-BIR3 (Homo sapiens (Human), UniProt Q13490); assay: BIR binding assay (FRET competition), cIAP1 BIR3; conditions: for cIAP1 BIR3 vs BIR2 separation window: fold separation (FS) for cIAP1
Outline: (§1)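 Each domain is run separately at its own level: 50 nM cIAP1-BIR3, 100 nM XIAP-BIR3, 325 nM for cIAP1-BIR2 or cIAP2-BIR2. Probe is a 200 nM fluorescent SMAC peptide, and the value is IC50 from FRET competition.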

[3] = system: Jurkat HIV-luciferase clones; assay: Jurkat latency reversal assay; type: cell-based; conditions: Homo sapiens, 48 h; Jurkat latency reversal assay potency; read-out: Jurkat pEC50 (converted)
Outline: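 EC50 and maximal activation versus vehicle were derived by four-parameter logistic regression of luciferase luminescence. The luminescence was induced in pooled Jurkat HIV-luciferase clones C16, 115 and N6 (5,000 cells/well) after 48 h at 37° C with duplicate 14-point, 3-fold dilutions starting at 10 μM (0.5% DMSO).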

[4] = target: cIAP2-BIR3 (Homo sapiens (Human), UniProt Q13489); assay: BIR binding assay (FRET competition), cIAP2 BIR3; conditions: for cIAP2 BIR3 vs BIR2 separation window: fold separation (FS) for cIAP2
[5] = target: XIAP-BIR3 (Homo sapiens (Human), UniProt P98170); assay: BIR binding assay (FRET competition), XIAP BIR3; conditions: for XIAP BIR3 vs BIR2 separation window: fold separation (FS) for XIAP
Outline: as §1

[6] = target: cIAP1-BIR2 (Homo sapiens (Human), UniProt Q13490); assay: BIR binding assay (FRET competition), cIAP1 BIR2
Outline: as §1

[7] = target: cIAP2-BIR2 (Homo sapiens (Human), UniProt Q13489); assay: BIR binding assay (FRET competition), cIAP2 BIR2
Outline: as §1

Sequence of cIAP2-BIR2 (Q13489 158-242): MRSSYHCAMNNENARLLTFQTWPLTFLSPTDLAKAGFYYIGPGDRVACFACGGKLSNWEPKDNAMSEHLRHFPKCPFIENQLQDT
Sequence of XIAP-BIR2 (P98170 124-240): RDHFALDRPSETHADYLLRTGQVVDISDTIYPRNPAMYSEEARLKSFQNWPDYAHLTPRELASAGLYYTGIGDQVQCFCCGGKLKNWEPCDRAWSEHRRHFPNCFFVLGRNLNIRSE
Sequence of cIAP2-BIR3 (Q13489 238-349): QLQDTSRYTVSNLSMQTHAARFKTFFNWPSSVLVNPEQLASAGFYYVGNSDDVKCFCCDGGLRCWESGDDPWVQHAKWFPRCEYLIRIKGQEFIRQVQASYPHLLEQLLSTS
Sequence of cIAP1-BIR2 (Q13490 173-257): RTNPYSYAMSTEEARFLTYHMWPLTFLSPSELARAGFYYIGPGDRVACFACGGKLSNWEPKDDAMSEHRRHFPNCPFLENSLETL
Sequence of XIAP-BIR3 (P98170 241-356): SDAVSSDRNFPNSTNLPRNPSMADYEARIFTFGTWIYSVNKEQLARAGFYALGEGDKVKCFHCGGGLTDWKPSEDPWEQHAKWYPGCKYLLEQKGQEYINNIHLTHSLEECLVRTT
Sequence of cIAP1-BIR3 (Q13490 253-363): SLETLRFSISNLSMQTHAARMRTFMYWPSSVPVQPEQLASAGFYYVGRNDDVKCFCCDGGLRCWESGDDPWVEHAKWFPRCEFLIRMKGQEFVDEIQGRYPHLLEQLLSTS

Structure (SMILES): C[C@@H]1CN(CC(=O)N2CC(C)(C)c3[nH]c(=O)c(Cc4ccc(F)cc4)cc32)[C@@H](CN2CCO[C@H](C(=O)Nc3cccc(NC(=O)[C@@H]4CN(C[C@H]5CN[C@H](C)CN5CC(=O)N5CC(C)(C)c6[nH]c(=O)c(Cc7ccc(F)cc7)cc65)CCO4)c3)C2)CN1 [Compound 140, (2S,2′S)-N,N′-(1,3-phenylene)bis(4-(((2R,5R)-1-(2-(6-(4-fluorobenzyl)-3,3-dimethyl-5-oxo-2,3,4,5-tetrahydro-1H-pyrrolo[3,2-b]pyridin-1-yl)-2-oxoethyl)-5-methylpiperazin-2-yl)methyl)morpholine-2-carboxamide)]
- IC50 ([1]; FRET competition): 10000 to 51300 nM
- IC50 [2]: 7.94 to 15.8 nM
- cIAP1 BIR3 vs BIR2 separation window [2]: +++ (10,000>FS>1,000)
- EC50 [3]: 63.1 to 316 nM
- IC50 [4]: 7.94 to 15.8 nM
- cIAP2 BIR3 vs BIR2 separation window [4]: +++ (10,000>FS>1,000)
- IC50 [5]: 15.8 to 31.6 nM
- XIAP BIR3 vs BIR2 separation window [5]: ++++ (FS>10,000)
- IC50 [6]: 1000 to 3160 nM
- IC50 [7]: 1000 to 3160 nM

Structure (SMILES): C[C@@H]1CN(CC(=O)N2CC(C)(C)c3[nH]c(=O)c(Cc4ccc(F)cc4)cc32)[C@@H](CN2CCC(CN(C)C(=O)c3ccc(C(=O)N(C)CC4CCN(C[C@H]5CN[C@H](C)CN5CC(=O)N5CC(C)(C)c6[nH]c(=O)c(Cc7ccc(F)cc7)cc65)CC4)cc3)CC2)CN1 [Example 96, N^1,N^4-bis((1-(((2R,5R)-1-(2-(6-(4-fluorobenzyl)-3,3-dimethyl-5-oxo-2,3,4,5-tetrahydro-1H-pyrrolo[3,2-b]pyridin-1-yl)-2-oxoethyl)-5-methylpiperazin-2-yl)methyl)piperidin-4-yl)methyl)-N^1,N^4-dimethylterephthalamide]
- IC50 ([1]; FRET competition binding): 10000 to 51300 nM
- IC50 [2]: 1.38 to 7.94 nM
- cIAP1 BIR3 vs BIR2 separation window [2]: +++ (10,000>FS>1,000)
- EC50 [3]: 63.1 to 316 nM
- IC50 [4]: 7.94 to 15.8 nM
- cIAP2 BIR3 vs BIR2 separation window [4]: +++ (10,000>FS>1,000)
- IC50 [5]: 7.94 to 15.8 nM
- XIAP BIR3 vs BIR2 separation window [5]: ++++ (FS>10,000)
- IC50 [6]: 1000 to 3160 nM
- IC50 [7]: 1000 to 3160 nM

Structure (SMILES): C[C@@H]1CN(CC(=O)N2CC(C)(C)c3[nH]c(=O)c(Cc4ccc(F)cc4)cc32)[C@@H](CN2CCO[C@H](C(=O)N(C)CCCCN(C)C(=O)[C@@H]3CN(C[C@H]4CN[C@H](C)CN4CC(=O)N4CC(C)(C)c5[nH]c(=O)c(Cc6ccc(F)cc6)cc54)CCO3)C2)CN1 [Example 127, (2S,2'S)-N,N′-(butane-1,4-diyl)bis(4-(((2R,5R)-1-(2-(6-(4-fluorobenzyl)-3,3-dimethyl-5-oxo-2,3,4,5-tetrahydro-1H-pyrrolo[3,2-b]pyridin-1-yl)-2-oxoethyl)-5-methylpiperazin-2-yl)methyl)-N-methylmorpholine-2-carboxamide)]
- IC50 ([1]; FRET competition binding): 10000 to 51300 nM
- IC50 [2]: 7.94 to 15.8 nM
- cIAP1 BIR3 vs BIR2 separation window [2]: +++ (10,000>FS>1,000)
- EC50 [3]: 63.1 to 316 nM
- IC50 [4]: 7.94 to 15.8 nM
- cIAP2 BIR3 vs BIR2 separation window [4]: +++ (10,000>FS>1,000)
- IC50 [5]: 7.94 to 15.8 nM
- XIAP BIR3 vs BIR2 separation window [5]: ++++ (FS>10,000)
- IC50 [6]: 1000 to 3160 nM
- IC50 [7]: 1000 to 3160 nM

Structure (SMILES): C[C@@H]1CN(CC(=O)N2CC(C)(C)c3ncc(Nc4ccc(F)cc4)cc32)[C@@H](CN2CCO[C@H](COc3cccc(OC[C@@H]4CN(C[C@H]5CN[C@H](C)CN5CC(=O)N5CC(C)(C)c6ncc(Nc7ccc(F)cc7)cc65)CCO4)c3)C2)CN1 [Compound 143, -[6-(4-fluoroanilino)-3,3-dimethyl-2H-pyrrolo[3,2-b]pyridin-1-yl]-2-[(2R,5R)-2-[[(2S)-2-[[3-[[(2S)-4-[[(2R,5R)-1-[2-[6-(4-fluoroanilino)-3,3-dimethyl-2H-pyrrolo[3,2-b]pyridin-1-yl]-2-oxo-ethyl]-5-methyl-piperazin-2-yl]methyl]morpholin-2-yl]methoxy]phenoxy]methyl]morpholin-4-yl]methyl]-5-methyl-piperazin-1-yl]ethenone]
- IC50 ([1]; FRET competition): 10000 to 51300 nM
- IC50 [2]: 31.6 to 501 nM
- EC50 [3]: 316 to 3310 nM
- IC50 [4]: 15.8 to 31.6 nM
- cIAP2 BIR3 vs BIR2 separation window [4]: ++++ (FS>10,000)
- IC50 [5]: 31.6 to 501 nM
- XIAP BIR3 vs BIR2 separation window [5]: +++ (10,000>FS>1,000)
- IC50 [6]: 10000 to 51300 nM
- IC50 [7]: 10000 to 51300 nM

Structure (SMILES): C[C@@H]1CN(CC(=O)N2CC(C)(C)c3[nH]c(=O)c(Cc4ccc(F)cc4)cc32)[C@@H](CN2CCO[C@H](C(=O)NCC(C)(C)CNC(=O)[C@@H]3CN(C[C@H]4CN[C@H](C)CN4CC(=O)N4CC(C)(C)c5[nH]c(=O)c(Cc6ccc(F)cc6)cc54)CCO3)C2)CN1 [Compound 139, (2S,2′S)-N,N′-(2,2-dimethylpropane-1,3-diyl)bis(4-(((2R,5R)-1-(2-(6-(4-fluorobenzyl)-3,3-dimethyl-5-oxo-2,3,4,5-tetrahydro-1H-pyrrolo[3,2-b]pyridin-1-yl)-2-oxoethyl)-5-methylpiperazin-2-yl)methyl)morpholine-2-carboxamide)]
- IC50 ([1]; FRET competition): 10000 to 51300 nM
- IC50 [2]: 7.94 to 15.8 nM
- cIAP1 BIR3 vs BIR2 separation window [2]: +++ (10,000>FS>1,000)
- EC50 [3]: 63.1 to 316 nM
- IC50 [4]: 7.94 to 15.8 nM
- cIAP2 BIR3 vs BIR2 separation window [4]: +++ (10,000>FS>1,000)
- IC50 [5]: 31.6 to 501 nM
- XIAP BIR3 vs BIR2 separation window [5]: +++ (10,000>FS>1,000)
- IC50 [6]: 1000 to 3160 nM
- IC50 [7]: 1000 to 3160 nM

Structure (SMILES): C[C@@H]1CN(CC(=O)N2CC(C)(C)c3[nH]c(=O)c(Cc4ccc(F)cc4)cc32)[C@@H](CN2CCO[C@H](C(=O)NCCCNC(=O)[C@@H]3CN(C[C@H]4CN[C@H](C)CN4CC(=O)N4CC(C)(C)c5[nH]c(=O)c(Cc6ccc(F)cc6)cc54)CCO3)C2)CN1 [Example 125, (2S,2'S)-N,N′-(Propane-1,3-diyl)bis(4-(((2R,5R)-1-(2-(6-(4-fluorobenzyl)-3,3-dimethyl-5-oxo-2,3,4,5-tetrahydro-1H-pyrrolo[3,2-b]pyridin-1-yl)-2-oxoethyl)-5-methylpiperazin-2-yl)methyl)morpholine-2-carboxamide)]
- IC50 ([1]; FRET competition binding): 10000 to 51300 nM
- IC50 [2]: 7.94 to 15.8 nM
- cIAP1 BIR3 vs BIR2 separation window [2]: +++ (10,000>FS>1,000)
- EC50 [3]: 63.1 to 316 nM
- IC50 [4]: 7.94 to 15.8 nM
- cIAP2 BIR3 vs BIR2 separation window [4]: +++ (10,000>FS>1,000)
- IC50 [5]: 15.8 to 31.6 nM
- XIAP BIR3 vs BIR2 separation window [5]: ++++ (FS>10,000)
- IC50 [6]: 1000 to 3160 nM
- IC50 [7]: 3160 to 10000 nM

Structure (SMILES): Cc1ccc(Cc2cc3c([nH]c2=O)C(C)(C)CN3C(=O)CN2C[C@@H](C)NC[C@@H]2CN2CCO[C@H](C(=O)NCc3ccc(CNC(=O)[C@@H]4CN(C[C@H]5CN[C@H](C)CN5CC(=O)N5CC(C)(C)c6[nH]c(=O)c(Cc7ccc(C)cc7)cc65)CCO4)cc3)C2)cc1 [Compound 163, (2S,2′S)-N,N′-(1,4-phenylenebis(methylene))bis(4-(((2R,5R)-1-(2-(3,3-dimethyl-6-(4-methylbenzyl)-5-oxo-2,3,4,5-tetrahydro-1H-pyrrolo[3,2-b]pyridin-1-yl)-2-oxoethyl)-5-methylpiperazin-2-yl)methyl)morpholine-2-carboxamide)]
- IC50 ([1]; FRET competition): 10000 to 51300 nM
- IC50 [2]: 1.38 to 7.94 nM
- cIAP1 BIR3 vs BIR2 separation window [2]: ++ (1,000>FS>100)
- EC50 [3]: 12.6 to 63.1 nM
- IC50 [4]: 1.38 to 7.94 nM
- cIAP2 BIR3 vs BIR2 separation window [4]: +++ (10,000>FS>1,000)
- IC50 [5]: 7.94 to 15.8 nM
- XIAP BIR3 vs BIR2 separation window [5]: ++++ (FS>10,000)
- IC50 [6]: 22.4 to 1000 nM
- IC50 [7]: 22.4 to 1000 nM

Structure (SMILES): C[C@@H]1CN(CC(=O)N2CC(C)(C)c3[nH]c(=O)c(Cc4ccc(F)cc4C#N)cc32)[C@@H](CN2CCO[C@H](C(=O)NCc3ccc(CNC(=O)[C@@H]4CN(C[C@H]5CN[C@H](C)CN5CC(=O)N5CC(C)(C)c6[nH]c(=O)c(Cc7ccc(F)cc7C#N)cc65)CCO4)cc3)C2)CN1 [Compound 179, (2S,2′S)-N,N′-(1,4-phenylenebis(methylene)) bis(4-(((2R,5R)-1-(2-(6-(2-cyano-4-fluorobenzyl)-3,3-dimethyl-5-oxo-2,3,4,5-tetrahydro-1H-pyrrolo[3,2-b]pyridin-1-yl)-2-oxoethyl)-5-methylpiperazin-2-yl)methyl)morpholine-2-carboxamide)]
- IC50 ([1]; FRET competition): 10000 to 51300 nM
- IC50 [2]: 15.8 to 31.6 nM
- cIAP1 BIR3 vs BIR2 separation window [2]: ++ (1,000>FS>100)
- EC50 [3]: 12.6 to 63.1 nM
- IC50 [4]: 15.8 to 31.6 nM
- cIAP2 BIR3 vs BIR2 separation window [4]: +++ (10,000>FS>1,000)
- IC50 [5]: 31.6 to 501 nM
- XIAP BIR3 vs BIR2 separation window [5]: +++ (10,000>FS>1,000)
- IC50 [6]: 1000 to 3160 nM
- IC50 [7]: 1000 to 3160 nM
